Several values for one entry are separate records, joined by “and”; a condition that tells them apart may be missing. Equal values may be shown once. Results filed as inconclusive are left out.
Tested on: MX-1 breast xenograft, intrarenal, nude mice, tumor weight
Test: NCI In Vivo Anticancer Drug Screen. Data for tumor model Human Mammary Carcinoma MX-1 Xenograft (intrarenal inoculation) in NU/NU BALB/C (nude) mice
Details: endpoint: mean tumor weight change, higher = larger tumour
Method in brief: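 T/C readout: treated-group measurement over vehicle-control measurement, using tumor size or survival in tumor-bearing mice.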

In the case of `CN(N=O)C(N)=O`, the T/C (dose: 25.0 mg/kg/injection, schedule: Q04DX003 (sc), vehicle: saline) is reported as 80 % of control, the T/C (dose: 50.0 mg/kg/injection, schedule: Q04DX003 (sc), vehicle: saline with Tween-80) is reported as 9 % of control and the T/C (dose: 50.0 mg/kg/injection, schedule: Q04DX003 (sc), vehicle: saline) is reported as 26 % of control.

`O=CC(O)C(O)C(O)C(O)CO` (centres undefined) was tested, and the T/C (dose: 75.0 mg/kg/injection, schedule: Q04DX003 (ip), vehicle: saline) was 72 % of control, the T/C (dose: 150.0 mg/kg/injection, schedule: Q04DX003 (ip), vehicle: saline) was 113 % of control and the T/C (dose: 300.0 mg/kg/injection, schedule: Q04DX003 (ip), vehicle: saline) was 65 % of control. The T/C (dose: 600.0 mg/kg/injection, schedule: Q04DX003 (ip), vehicle: saline) was 93 % of control and the T/C (dose: 1200.0 mg/kg/injection, schedule: Q04DX003 (ip), vehicle: saline) was 59 % of control.

With `N=C1CCCS1` the T/C (dose: 18.75 mg/kg/injection, schedule: Q04DX003 (sc), vehicle: saline) was 108 % of control, the T/C (dose: 37.5 mg/kg/injection, schedule: Q04DX003 (sc), vehicle: saline) was 91 % of control and the T/C (dose: 75.0 mg/kg/injection, schedule: Q04DX003 (sc), vehicle: saline) was 124 % of control.

For `C=C1COC(O)(C2OCOC(C3CC(=O)NC(=O)C3)C2O)C1C` (centres undefined), the T/C (dose: 37.5 micrograms/kg/injection, schedule: Q04DX003 (ip), vehicle: water) was 117 % of control.

With `COC1C(N)C(OC2C(Oc3cccc4c(O)c5c(=O)oc6ccc(C)c7c(=O)oc(c34)c5c67)OC(C)C(O)C2(C)O)OC(C)C1O` (centres undefined) the T/C (dose: 2.5 mg/kg/injection, schedule: Q04DX003 (ip), vehicle: lactic acid) was 90 % of control and the T/C (dose: 10.0 mg/kg/injection, schedule: Q04DX003 (ip), vehicle: lactic acid) was 6 % of control.

In the case of `O=c1[nH]cnc2c1cnn2CN1CCOCC1`, the T/C (dose: 150.0 mg/kg/injection, schedule: Q04DX003 (ip), vehicle: Klucel (hydroxypropylcellulose) (HPC)) is reported as 96 % of control and the T/C (dose: 300.0 mg/kg/injection, schedule: Q04DX003 (ip), vehicle: Klucel (hydroxypropylcellulose) (HPC)) is reported as 65 % of control.

With `O=C[C@@H](CO)O[C@H](C=O)c1c[nH]c(=O)[nH]c1=O` the T/C (dose: 25.0 mg/kg/injection, schedule: Q04DX003 (ip), vehicle: saline) was 71 % of control, the T/C (dose: 37.5 mg/kg/injection, schedule: Q04DX003 (ip), vehicle: saline) was 54 % of control and the T/C (dose: 100.0 mg/kg/injection, schedule: Q04DX003 (ip), vehicle: saline) was 5 % of control and 9 % of control and 28 % of control. The T/C (dose: 125.0 mg/kg/injection, schedule: Q04DX003 (ip), vehicle: saline) was 4 % of control and 7 % of control.

`Cc1ccc(C2NC(=O)c3ccccc3N2)s1` (centres undefined) was tested, and the T/C (dose: 600.0 mg/kg/injection, schedule: Q04DX003 (sc), vehicle: Klucel (hydroxypropylcellulose) (HPC)) was 105 % of control, the T/C (dose: 1200.0 mg/kg/injection, schedule: Q04DX003 (sc), vehicle: Klucel (hydroxypropylcellulose) (HPC)) was 106 % of control and the T/C (dose: 2400.0 mg/kg/injection, schedule: Q04DX003 (sc), vehicle: Klucel (hydroxypropylcellulose) (HPC)) was 118 % of control. For the same compound, the T/C (dose: 4800.0 mg/kg/injection, schedule: Q04DX003 (sc), vehicle: Klucel (hydroxypropylcellulose) (HPC)) was 97 % of control.

For `COc1cc2oc3c(C)c(=O)cc4oc(-c5ccccc5)cc(c2c2c1CCC(c1ccccc1)O2)c43` (centres undefined), the T/C (dose: 7.0 mg/kg/injection, schedule: Q04DX003 (ip), vehicle: Klucel (hydroxypropylcellulose) (HPC)) was 88 % of control, the T/C (dose: 14.0 mg/kg/injection, schedule: Q04DX003 (ip), vehicle: Klucel (hydroxypropylcellulose) (HPC)) was 82 % of control and the T/C (dose: 37.5 mg/kg/injection, schedule: Q04DX003 (ip), vehicle: saline with Tween-80) was 111 % of control. The T/C (dose: 56.0 mg/kg/injection, schedule: Q04DX003 (ip), vehicle: Klucel (hydroxypropylcellulose) (HPC)) was 107 % of control, the T/C (dose: 75.0 mg/kg/injection, schedule: Q04DX003 (ip), vehicle: saline with Tween-80) was 77 % of control and the T/C (dose: 150.0 mg/kg/injection, schedule: Q04DX003 (ip), vehicle: saline with Tween-80) was 117 % of control. For the same compound, the T/C (dose: 300.0 mg/kg/injection, schedule: Q04DX003 (ip), vehicle: saline with Tween-80) was 52 % of control.

`CN(C)C(=O)Nc1ccc(Cl)cc1` was tested, and the T/C (dose: 150.0 mg/kg/injection, schedule: Q04DX003 (ip), vehicle: suspension in saline) was 71 % of control, the T/C (dose: 300.0 mg/kg/injection, schedule: Q04DX003 (ip), vehicle: suspension in saline) was 98 % of control and the T/C (dose: 600.0 mg/kg/injection, schedule: Q04DX003 (ip), vehicle: suspension in saline) was 91 % of control.

From PubChem BioAssay AID298 (DTP/NCI, 2004)
